Data published in US8084647B2, “Two-photon probe for real-time monitoring of intracellular calcium ions, method for preparing the probe and method for real-time monitoring of intracellular calcium ions using the probe” (Korea University Industry and Academy Cooperation Foundation, priority 2007, dated 2011).
Where two headings read alike, the source gives them in different places.

Columns and labels:
[1] = previously reported value, cited from earlier work
astrocytes = test: Two-photon microscopy of cultured astrocytes; format: cell-based, rat; conditions: cultured astrocytes labeled with 2 μM probe
Procedure: Astrocytes were taken from cerebral cortices of 1-day-old rats (Sprague-Dawley; SD). Cerebral cortices were dissociated in Hank's balanced salt solution (HBSS; Gibco BRL, Gaithersburg, Md., USA) containing 3 U/ml papain (Worthington Biochemical Corporation, NJ, USA) and plated in 75 mm flasks. To prepare purified astrocytes culture, flasks were shaken for 6 h on a shaker at 37° C., and the floating cells that were displaced into the media were removed. Astrocytes were passaged with 5 min exposure to 0.25% trypsin and replated onto poly-D-lysin-coated glass coverslips at 50˜100 cells/mm^2 and were maintained in Dulbecco's modified Eagle's medium (DMEM; Gibco) supplemented with penicillin/streptomycin and 10% fetal bovine serum (FBS; Gibco) in a CO2 incubator at 37° C. After 7-15 days in vitro, astrocytes were washed three times with serum-free media, and then incubated with 2 μM of the compound of Formula 7 in serum-free media for 20 min at 37° C. The cells were washed three times with phosphate buffered saline (PBS; Gibco) and then imaged after further incubation in colorless serum-free media for 15 min.
The spontaneous increase in [Ca^2+]i also propagated between astrocytes, as indicated by the delayed activity in the neighboring astrocyte (FIGS. 15b and 15d).

[2] = test system: acute rat hypothalamic slice; test: Two-photon microscopy of acute rat hypothalamic slices; format: cell-based
Procedure: Slices were prepared from the hippocampi and the hypothalmic of 2-day-old rat (SD). Coronal slices were cut into 400 μm thick using a vibrating-blade microtome in artificial cerebrospinal fluid (ACSF; 138.6 mM NaCl, 3.5 mM KCl, 21 mM NaHCO3, 0.6 mM NaH2PO4, 9.9 mM D-glucose, 1 mM CaCl2, and 3 mM MgCl2). Slices were incubated with the compound (10 μM) of Formula 7 in ACSF bubbled with 95% O2 and 5% CO2 for 30 min at 37° C. Slices were then washed three times with ACSF and transferred to glass-bottomed dishes (MatTek) and observed in a spectral confocal multi photon microscope.

[3] = Two-photon action spectra / two-photon cross section; format: physicochemical
Procedure: Thus, TPM images for samples stained with the compound of Formula 4 would be much brighter than those stained with commercial probe. In addition, the two-photon fluorescence enhancement factor (TFEF) estimated from the two-photon titration curve was 44 (Table 2), a value that allowed detection of Ca^2+ by TPM.
The two-photon cross section (δ) was determined by using femto second (fs) fluorescence measurement technique (S. K. Lee, W. J. Yang, J. J. Choi, C. H. Kim, S.-J, Jeon, B. R. Cho, Org. Lett. 2005, 7, 323-326).

[4] = Reactivity for various metal ions (FIG. 10)
Excerpt: FIG. 10 is a graph showing the reactivity of the compound of Formula 4 for various metal ions;

[5] = Two-photon excited fluorescence (TPEF) titration with Ca2+ (Kd^TP); format: binding; conditions: estimated from the two-photon titration curve
Excerpt: In order to determine the Kd^TP for the two-photon process, the TPEF spectra were obtained with a DM IRE2 Microscope (Leica) excited by a mode-locked titanium-sapphire laser source (Coherent Chameleon, 90 MHz, 200 fs) set at wavelength 780 nm and output power 1230 mW, which corresponded to approximately 10 mW average power in the focal plane. The TPEF titration curves (FIG. 6) were obtained and fitted to Equation 3.

[6] = One-photon fluorescence titration with Ca2+ (Kd^OP, enhancement factor, Hill plot); format: binding; conditions: presence of 39 μM Ca2+
Procedure: A series of calibration solutions containing various [Ca^2+] was prepared by mixing two solutions (solution A containing 10 mM K2EGTA and solution B containing 10 mM CaEGTA) in various ratios. Both solutions contained the compound (1 μM) of Formula 4, 100 mM KCl, 30 mM MOPS, and they were adjusted to pH 7.2.
Then, 203 μl of this solution was discarded and replaced by 203 μl of solution B (39 μM free Ca^2+), and the spectrum was recorded. This brings the CaEGTA concentration to 1.00 mM and the [Ca^2]free to about 0.017 μM with no change in the concentration of the probe or of the total EGTA. The [Ca^2+]free is calculated from the Kd of EGTA for Ca^2+ (150.5 nM) using Equation 2: […]
where F is the observed fluorescence intensity, Fmin is the minimum fluorescence intensity, and Fmax is the maximum fluorescence intensity. The Kd value that best fits the titration curve (FIG. 6) with Equation 5 was calculated by using the Excel program as reported (J. R. Long, R. S. Drago, J. Chem. Ed. 1982, 59, 1037; K. Hirose, J. Incl. Phenom. Macrocycl. Chem. 2001, 39, 193).
The dissociation constants (Kd^OP) were calculated from the fluorescence titration curves (FIG. 6), as reported (J. R. Long, R. S. Drago, J. Chem. Educ. 1982, 59, 1037-1039).

[7] = Effect of pH on the reactivity (FIG. 11); format: physicochemical; conditions: biologically relevant pH range
Excerpt: FIG. 11 is a graph showing the effect of pH on the reactivity of the compound of Formula 4;

[8] = One-photon absorption and emission spectra, fluorescence quantum yield; format: physicochemical; conditions: for Φ fluorescence quantum yield: ±10%
Procedure: The absorption spectra of the compound of Formula 7 were recorded on a Hewlett-Packard 8453 diode array spectrophotometer, and the fluorescence spectra of the compound were obtained with Amico-Bowman series 2 luminescence spectrometer with a 1 cm standard quartz cell. The fluorescence quantum yield of the compound was determined by using Coumarin 307 as the reference by the literature method (J. N. Demas, G. A. Crosby, J. Phys. Chem. 1971, 75, 991-1024.).

[9] = prolonged observation time in tissue
[10] = 30 mM MOPS, 100 mM KCl, 10 mM EGTA, pH 7.2, absence of free Ca2+
[11] = MOPS buffer pH 7.2, presence of 39 μM free Ca2+

In the case of Oregon Green 488 BAPTA-1 [OG1], the “FEF^OP fluorescence enhancement factor (F − Fmin)/Fmin, one-photon” value (“FEF^OP fluorescence enhancement factor” for short) [1] is given as 14 and the “FEF^OP fluorescence enhancement factor” value ([1]; listed as OG1 + Ca^2+) is given as 14^[l]/nd.

With `CC(=O)c1ccc2cc(N(C)CC(=O)Nc3ccc(N(CC(=O)O)CC(=O)O)c(OCCOc4ccccc4N(CC(=O)O)CC(=O)O)c3)ccc2c1` [Formula 4] the “visualization of calcium waves by TPM” value (astrocytes) was “clearly capable of visualizing the intra- and intercellular calcium waves”, the “imaging depth in live tissue” value ([2]; TPM) was ~170 μm and the photo-stability [2, 9] was “high photo-stability”. For the same molecule, the photo-toxicity [2, 9] was “low photo-toxicity”, the “Φδ / TPEF relative to OG1-Ca2+” value ([3]; Ca2+ complexes in buffer) was 5 fold and the “Φδ two-photon action cross section” value ([3]; presence of 39 μM free Ca2+) was 110 GM. The “λmax^(2) of the two-photon excitation spectra” value ([3]; presence of 39 μM free Ca2+) was 780 nm, the “δ peak two-photon cross section” value ([3]; presence of 39 μM free Ca2+, ±15%) was 230 GM and the “response toward CO^2+” value [4] was “much weaker response”. The “response toward Cu^2+” value [4] was “no response”, the “response toward Fe^2+” value [4] was “much weaker response” and the “response toward Mg^2+” value [4] was “much weaker response”. The “response toward Mn^2+” value [4] was “modest response”, the “response toward Zn^2+” value [4] was “modest response” and the “FEF^TP two-photon fluorescence enhancement factor” value [5] was 44. The “FEF^OP fluorescence enhancement factor” value [6] was 40, the “fluorescence enhancement factor relative to OG1” value [6] was ~3 fold and the pH sensitivity [7] was “pH-insensitive”. The “λmax^(l) one-photon absorption” value [8, 10] was 365 nm, the “λmax^fl one-photon emission” value [8, 10] was 498 nm and the “Φ fluorescence quantum yield” value [8, 10] was 0.012. For the same molecule, the “λmax^(l) one-photon absorption” value [8, 11] was 365 nm, the “λmax^fl one-photon emission” value [8, 11] was 498 nm and the “Φ fluorescence quantum yield” value [8, 11] was 0.49.
